{"source": "ChEMBL document CHEMBL5505975", "about": "“Design, synthesis and biological evaluation of CDC20 inhibitors for treatment of triple-negative breast cancer” (Eur J Med Chem, 2024)", "key": {"[1]": {"test_system": "MDA-MB-231", "experiment": "Induction of apoptosis in human MDA-MB-231 cells assessed as late apoptotic cells at 100 uM incubated for 48 hrs by Annexin V-FITC/PI staining based flow cytometric analysis (reference value: 1.06%)", "type": "functional"}, "[2]": {"experiment": "Cytotoxicity against human L02 cells assessed as reduction in cell viability incubated for 96 hrs by MTT assay", "type": "toxicity, cell-based"}, "[3]": {"test_system": "MDA-MB-231", "experiment": "Cell cycle arrest in human MDA-MB-231 cells assessed as S phase cells at 100 uM incubated for 48 hrs by PI staining based flow cytometric analysis (reference value: 16.0%)", "type": "functional"}, "[4]": {"test_system": "MDA-MB-231", "experiment": "Cell cycle arrest in human MDA-MB-231 cells assessed as S phase cells at 100 uM incubated for 48 hrs by PI staining based flow cytometric analysis (reference value: 29.9%)", "type": "functional"}, "[5]": {"test_system": "MDA-MB-231", "experiment": "Cell cycle arrest in human MDA-MB-231 cells assessed as G1 phase cells at 100 uM incubated for 72 hrs by PI staining based flow cytometric analysis (reference value: 51.5%)", "type": "functional"}, "[6]": {"test_system": "MDA-MB-231", "experiment": "Cell cycle arrest in human MDA-MB-231 cells assessed as G1 phase cells at 100 uM incubated for 48 hrs by PI staining based flow cytometric analysis (reference value: 76.7%)", "type": "functional"}, "[7]": {"test_system": "MDA-MB-231", "experiment": "Cell cycle arrest in human MDA-MB-231 cells assessed as G2 phase cells at 100 uM incubated for 48 hrs by PI staining based flow cytometric analysis (reference value: 18.6%)", "type": "functional"}, "[8]": {"test_system": "MDA-MB-231", "experiment": "Cell cycle arrest in human MDA-MB-231 cells assessed as S phase cells at 100 uM incubated for 24 hrs by PI staining based flow cytometric analysis (reference value: 29.9%)", "type": "functional"}, "[9]": {"test_system": "MDA-MB-231", "experiment": "Cell cycle arrest in human MDA-MB-231 cells assessed as G2 phase cells at 100 uM incubated for 72 hrs by PI staining based flow cytometric analysis (reference value: 18.6%)", "type": "functional"}, "[10]": {"test_system": "MDA-MB-231", "experiment": "Cell cycle arrest in human MDA-MB-231 cells assessed as S phase cells at 100 uM incubated for 72 hrs by PI staining based flow cytometric analysis (reference value: 29.9%)", "type": "functional"}, "[11]": {"test_system": "MDA-MB-231", "experiment": "Cell cycle arrest in human MDA-MB-231 cells assessed as G1 phase cells at 100 uM incubated for 24 hrs by PI staining based flow cytometric analysis (reference value: 51.5%)", "type": "functional"}, "[12]": {"biological_target": "Cell division cycle protein 20 homolog (Homo sapiens, UniProt Q12834)", "sequence (Q12834 whole entry)": "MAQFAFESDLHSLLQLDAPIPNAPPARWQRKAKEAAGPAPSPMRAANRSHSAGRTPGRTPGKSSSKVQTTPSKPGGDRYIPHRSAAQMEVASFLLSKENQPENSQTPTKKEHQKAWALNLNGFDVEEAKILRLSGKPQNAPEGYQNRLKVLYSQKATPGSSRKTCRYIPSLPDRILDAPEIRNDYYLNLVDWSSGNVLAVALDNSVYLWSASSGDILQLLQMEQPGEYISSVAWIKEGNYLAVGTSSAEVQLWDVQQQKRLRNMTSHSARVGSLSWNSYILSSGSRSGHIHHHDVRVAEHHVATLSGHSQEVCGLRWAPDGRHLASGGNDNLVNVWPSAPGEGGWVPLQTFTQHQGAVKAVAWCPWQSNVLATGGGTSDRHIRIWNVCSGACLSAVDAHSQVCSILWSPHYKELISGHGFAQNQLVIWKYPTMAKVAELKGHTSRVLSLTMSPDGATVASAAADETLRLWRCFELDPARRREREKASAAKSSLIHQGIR", "experiment": "Binding affinity human CDC20 assessed as dissociation constant by SPR analysis"}, "[13]": {"test_system": "MDA-MB-231", "experiment": "Cell cycle arrest in human MDA-MB-231 cells assessed as G1 phase cells at 100 uM incubated for 48 hrs by PI staining based flow cytometric analysis (reference value: 51.5%)", "type": "functional"}, "[14]": {"test_system": "A549", "experiment": "Antiproliferative activity against human A549 cells assessed as reduction in cell viability incubated for 96 hrs by MTT assay", "details": "A549, 96 h"}, "[15]": {"test_system": "MDA-MB-231", "experiment": "Induction of apoptosis in human MDA-MB-231 cells assessed as necrotic cells at 100 uM incubated for 48 hrs by Annexin V-FITC/PI staining based flow cytometric analysis (reference value: 1.63%)", "type": "functional"}, "[16]": {"test_system": "MDA-MB-231", "experiment": "Antiproliferative activity against human MDA-MB-231 cells assessed as reduction in cell viability incubated for 96 hrs by MTT assay", "details": "MDA-MB-231, 96 h"}, "[17]": {"test_system": "MCF7", "experiment": "Antiproliferative activity against human MCF7 cells assessed as reduction in cell viability incubated for 96 hrs by MTT assay", "details": "MCF7, 96 h"}, "[18]": {"test_system": "MDA-MB-231", "experiment": "Induction of apoptosis in human MDA-MB-231 cells assessed as early apoptotic cells at 100 uM incubated for 48 hrs by Annexin V-FITC/PI staining based flow cytometric analysis (reference value: 2.25 %)", "type": "functional"}, "[19]": {"test_system": "MDA-MB-231", "experiment": "Cell cycle arrest in human MDA-MB-231 cells assessed as G2 phase cells at 100 uM incubated for 48 hrs by PI staining based flow cytometric analysis (reference value: 7.3%)", "type": "functional"}, "[20]": {"test_system": "MDA-MB-231", "experiment": "Induction of apoptosis in human MDA-MB-231 cells assessed as viable cells at 100 uM incubated for 48 hrs by Annexin V-FITC/PI staining based flow cytometric analysis (reference value: 95.10%)", "type": "functional", "details": "read-out: Activity"}, "[21]": {"test_system": "MDA-MB-468", "experiment": "Antiproliferative activity against human MDA-MB-468 cells assessed as reduction in cell viability incubated for 96 hrs by MTT assay", "details": "MDA-MB-468, 96 h"}, "[22]": {"test_system": "MDA-MB-231", "experiment": "Cell cycle arrest in human MDA-MB-231 cells assessed as G2 phase cells at 100 uM incubated for 24 hrs by PI staining based flow cytometric analysis (reference value: 18.6%)", "type": "functional"}}}
{"smiles": "Cc1ncc([N+](=O)[O-])n1CCOC(=O)NC(Nc1ncccn1)C(Cl)(Cl)Cl", "note": "(configuration not stated)", "values": [{"measurement": "Activity", "setting": "[1]", "value": 3.12, "unit": "%"}, {"measurement": "IC50 at 96 h", "setting": "[2]", "value": "> 200", "unit": "µM"}, {"measurement": "Activity", "setting": "[3]", "value": 38, "unit": "%"}, {"measurement": "Activity", "setting": "[4]", "value": 23.5, "unit": "%"}, {"measurement": "Activity", "setting": "[5]", "value": 39.2, "unit": "%"}, {"measurement": "Activity", "setting": "[6]", "value": 50.3, "unit": "%"}, {"measurement": "Activity", "setting": "[7]", "value": 27.7, "unit": "%"}, {"measurement": "Activity", "setting": "[8]", "value": 45.1, "unit": "%"}, {"measurement": "Activity", "setting": "[9]", "value": 36.2, "unit": "%"}, {"measurement": "Activity", "setting": "[10]", "value": 24.6, "unit": "%"}, {"measurement": "Activity", "setting": "[11]", "value": 28.8, "unit": "%"}, {"measurement": "Kd", "setting": "[12]", "value": 172, "unit": "µM"}, {"measurement": "Activity", "setting": "[13]", "value": 48.8, "unit": "%"}, {"measurement": "IC50", "setting": "[14]", "value": 114, "unit": "µM"}, {"measurement": "Activity", "setting": "[15]", "value": 2.43, "unit": "%"}, {"measurement": "IC50", "setting": "[16]", "value": 139, "unit": "µM"}, {"measurement": "IC50", "setting": "[17]", "value": 109, "unit": "µM"}, {"measurement": "Activity", "setting": "[18]", "value": 3.22, "unit": "%"}, {"measurement": "Activity", "setting": "[19]", "value": 11.7, "unit": "%"}, {"measurement": "viability at 100 µM", "setting": "[20]", "value": 91.2, "unit": "%"}, {"measurement": "IC50", "setting": "[21]", "value": 83.4, "unit": "µM"}, {"measurement": "Activity", "setting": "[22]", "value": 26.1, "unit": "%"}]}
